Measurements as given in PubChem BioAssay AID504422 (Sanford-Burnham Center for Chemical Genomics, 2011).
Activity calls are given as the source filed them. The rule behind the calls is not given here.

tested on: human hepatocytes, lipid droplet formation imaging; experiment: inhibitors of hepatocyte lipid droplet formation, SAR follow-up, imaging, human hepatocytes (AID 504422)

Compound	IC50
CCOc1ccc(CCNC(=O)CCC(=O)N2CCSc3ccccc32)cc1OCC	> 10 µM (inactive)
COc1ccc(CCNC(=O)c2cc(-c3ccccc3)c(N3CCOCC3)s2)cc1OC	> 10 µM (inactive)
CCn1c(C(=O)NCc2ccc3c(c2)OCO3)cc2sccc21	> 10 µM (inactive)
CCOc1ccc(CCNC(=O)c2cc3sc(Cl)cc3n2C)cc1OCC	> 10 µM (inactive)
CCOc1ccc(CCNC(=O)c2cc3sccc3n2C)cc1OCC	> 10 µM (inactive)
CCOc1ccc(CCNC(=O)CSc2cc(=O)n(C)c3ccccc23)cc1OCC	> 10 µM (inactive)
CCn1c(C(=O)NCc2ccc(OC)c(OC)c2)cc2ccsc21	> 10 µM (inactive)
Cn1c(=O)cc(SCC(=O)NCc2ccc3c(c2)OCO3)c2ccccc21	> 10 µM (inactive)
CCOc1cc(CCNC(=O)c2cc3ccccc3n2C)ccc1OC	> 10 µM (inactive)
Cn1c(C(=O)Nc2ccc3c(c2)OCO3)cc2ccsc21	> 10 µM (inactive)
Cn1c(=O)cc(SCC(=O)NCCc2ccc3c(c2)OCO3)c2ccccc21	> 10 µM (inactive)
CCOc1ccc(CCNC(=O)Cn2cccc2C(=O)c2ccccc2)cc1OCC	> 10 µM (inactive)
COc1ccc(CCNC(=O)c2cc3sc(Cl)cc3n2C)cc1OC	> 10 µM (inactive)
CCOc1ccc(CCNC(=O)CSc2cc(=O)n(C)c3ccccc23)cc1OC	> 10 µM (inactive)
COc1ccc(CNC(=O)c2cc(-c3ccccc3)c(N3CCOCC3)s2)cc1OC	> 10 µM (inactive)
CCOc1ccc(CCNC(=O)CCc2nnc3ccc(N4CCCCC4)nn23)cc1OCC	> 10 µM (inactive)
CCOc1ccc(CCNC(=O)CN2C(=O)c3cccnc3Oc3ccc(C)cc32)cc1OCC	> 10 µM (inactive)
CCOc1ccc(CCNC(=O)CCC(=O)N2CCOc3ccc(C)cc32)cc1OCC	> 10 µM (inactive)
CCOc1ccc(CCNC(=O)CCOc2cc(C)ccc2C)cc1OCC	> 10 µM (inactive)
CCOc1cc(CCNC(=O)c2cc3sccc3[nH]2)ccc1OC	> 10 µM (inactive)
CCOc1ccc(CCNC(=O)c2cc3sccc3n2CC)cc1OC	> 10 µM (inactive)
COc1cc(CNC(=O)CSc2cc(=O)n(C)c3ccccc23)cc(OC)c1OC	> 10 µM (inactive)
CCOc1ccc(CCNC(=O)c2ccc(N3CCOCC3)s2)cc1OCC	> 10 µM (inactive)
O=C(NCCc1ccc2c(c1)OCO2)c1ccc(N2CCOCC2)s1	> 10 µM (inactive)
CCn1c(C(=O)Nc2ccc3c(c2)OCO3)cc2ccsc21	> 10 µM (inactive)
CCOc1ccc(CCNC(=O)c2cc3ccsc3n2C)cc1OCC	> 10 µM (inactive)

Compound	IC50
CCn1c(C(=O)Nc2ccc3c(c2)OCO3)cc2sccc21	> 10 µM (inactive)
CCOc1ccc(CCNC(=O)c2cc3ccccc3n2C)cc1OC	> 10 µM (inactive)
CCn1c(C(=O)NCCc2ccc(OC)c(OC)c2)cc2sc(Cl)cc21	> 10 µM (inactive)
CCOc1ccc(CCNC(=O)COc2cc(=O)n(C)c3ccccc23)cc1OCC	> 10 µM (inactive)
Cn1c(C(=O)NCCc2ccc3c(c2)OCO3)cc2ccccc21	> 10 µM (inactive)
CCOc1cc(CCNC(=O)c2cc3ccsc3n2C)ccc1OC	> 10 µM (inactive)
COc1ccc(CNC(=O)c2ccc(N3CCOCC3)s2)cc1OC	> 10 µM (inactive)
Cn1c(=O)cc(SCC(=O)Nc2ccc3c(c2)OCO3)c2ccccc21	> 10 µM (inactive)
CCOc1ccc(CCNC(=O)CCc2nnc3ccc(N4CCCC4)nn23)cc1OCC	> 10 µM (inactive)
CCOc1ccc(CCNC(=O)c2cc(-c3ccccc3)c(N3CCOCC3)s2)cc1OCC	> 10 µM (inactive)
CCOc1ccc(CCNC(=O)COC(=O)c2cc(OC)cc(OC)c2)cc1OCC	> 10 µM (inactive)
COc1cc(CNC(=O)c2cc3ccsc3n2C)cc(OC)c1OC	> 10 µM (inactive)
CCOc1ccc(CCNC(=O)c2cc3ccsc3n2C)cc1OC	> 10 µM (inactive)
CCOc1cc(CCNC(=O)CSc2cc(=O)n(C)c3ccccc23)ccc1OC	> 10 µM (inactive)
CCOc1ccc(CCNC(=O)CCc2nc(-c3ccc(OC)cc3)no2)cc1OCC	> 10 µM (inactive)
CCn1c(C(=O)Nc2ccc(OC)c(OC)c2)cc2ccsc21	> 10 µM (inactive)
COc1ccc(CCNC(=O)c2cc(-c3ccccc3)c(N3CCOCC3)s2)c(OC)c1OC	> 10 µM (inactive)
CCn1c(C(=O)NCCc2ccc(OC)c(OC)c2)cc2ccsc21	> 10 µM (inactive)
CCOc1ccc(CCNC(=O)CN2CCN(Cc3ccccc3C)C2=O)cc1OCC	> 10 µM (inactive)
CCOc1cc(CCNC(=O)c2cc(-c3ccccc3)c(N3CCOCC3)s2)ccc1OC	> 10 µM (inactive)
CCOc1ccc(CCNC(=O)COC(=O)c2ccc(OC)c(OC)c2OC)cc1OCC	> 10 µM (inactive)
CCOc1ccc(CCNC(=O)CCC(=O)N2CCOc3ccccc32)cc1OCC	> 10 µM (inactive)
COc1ccc(CCNC(=O)CSc2cc(=O)n(C)c3ccccc23)cc1OC	> 10 µM (inactive)
CCOc1ccc(CCNC(=O)CSc2cc(=O)n(C)c3cc(Cl)ccc23)cc1OCC	> 10 µM (inactive)
CCOc1ccc(CCNC(=O)Cn2ncn3nc(-c4ccc(OC)cc4)cc3c2=O)cc1OCC	> 10 µM (inactive)
COc1ccc(CNC(=O)CSc2cc(=O)n(C)c3ccccc23)cc1OC	> 10 µM (inactive)

Compound	IC50
CCOc1ccc(CCNC(=O)Cn2nc(C)c3c(C)n(-c4ccccc4)nc3c2=O)cc1OCC	> 10 µM (inactive)
COc1ccc(CCNC(=O)Cn2cccc2C(=O)c2ccccc2C)cc1OC	> 10 µM (inactive)
CCn1c(C(=O)NCc2cc(OC)c(OC)c(OC)c2)cc2ccsc21	> 10 µM (inactive)
CCOc1ccc(CCNC(=O)CSc2cc(=O)n(CC)c3ccccc23)cc1OCC	> 10 µM (inactive)
CCOc1ccc(CCNC(=O)Cn2cccc2C(=O)c2ccccc2C)cc1OCC	> 10 µM (inactive)
CCn1c(C(=O)NCc2cc(OC)c(OC)c(OC)c2)cc2sccc21	> 10 µM (inactive)
CCOc1ccc(CCNC(=O)C2CC=CCC2C(=O)OC(C)C)cc1OCC (stereo not drawn)	> 10 µM (inactive)
CCn1c(C(=O)Nc2ccc(OC)c(OC)c2)cc2sccc21	> 10 µM (inactive)
CCOc1ccc(CCNC(=O)COC(=O)c2cc(OC)c(OC)c(OC)c2)cc1OCC	> 10 µM (inactive)
Cn1c(C(=O)NCc2ccc3c(c2)OCO3)cc2ccsc21	> 10 µM (inactive)
O=C(NCCc1ccc2c(c1)OCO2)c1cc2sccc2[nH]1	> 10 µM (inactive)
CCOc1ccc(CCNC(=O)c2cc(-c3ccccc3)c(N3CCOCC3)s2)cc1OC	> 10 µM (inactive)
CCOc1ccc(CCNC(=O)c2cc3sccc3n2CC)cc1OCC	> 10 µM (inactive)
CCOc1cc(CCNC(=O)COc2cc(=O)n(C)c3ccccc23)ccc1OC	> 10 µM (inactive)
CCOc1ccc(CCNC(=O)c2cc3ccsc3n2CC)cc1OCC	> 10 µM (inactive)
COc1ccc(CCNC(=O)COC(=O)c2cc(OC)c(OC)cc2OC)cc1OC	> 10 µM (inactive)
O=C(NCCc1ccc2c(c1)OCO2)c1cc(-c2ccccc2)c(N2CCOCC2)s1	> 10 µM (inactive)
CCOc1cc(CCNC(=O)c2cc3sccc3n2CC)ccc1OC	> 10 µM (inactive)
COc1ccc(CNC(=O)c2cc3ccsc3n2C)cc1OC	> 10 µM (inactive)
CCOc1cc(CCNC(=O)c2ccc(N3CCOCC3)s2)ccc1OC	> 10 µM (inactive)
CCOc1ccc(CCNC(=O)c2nnc(Cc3ccc(F)cc3)o2)cc1OCC	> 10 µM (inactive)
CCOc1ccc(CCNC(=O)c2cc3ccsc3n2CC)cc1OC	> 10 µM (inactive)
COc1ccc(NC(=O)c2cc3ccsc3n2C)cc1OC	> 10 µM (inactive)
CCOc1ccc(CCNC(=O)c2cc3sccc3[nH]2)cc1OCC	> 10 µM (inactive)
COc1ccc(CCNC(=O)c2cc3sccc3n2C)cc1OC	> 10 µM (inactive)
COc1ccc(CCNC(=O)c2cc3ccccc3n2C)cc1OC	> 10 µM (inactive)
